Where no end group is shown, it is not given here.
Assays:
H9C2 cells [1] = test: Alanine scan: percentage of Cy5.5 positive H9C2 cells by FACS; format: cell-based, rat; details: percentage of Cy5.5 positive H9C2 cells normalized to non-mutated peptide (SEQ ID NO: 1); Cy5.5-conjugated peptides, 30 minutes at 37° C.
Description: (§1) Variants of SEQ ID NO: 1 in which every amino acid was systematically mutated to alanine were synthesized in the University of Pittsburgh Peptide Synthesis Facility. Each variant was conjugated to the Cyanine5.5 fluorescent dye (Cy5.5). The rat cardiomyocyte cell line H9C2 (ATCC, catalogue #: CRL-1446) was incubated for 30 minutes at 37° C. with Dimethyl sulfoxide (DMSO) as a control, or the alanine peptide variants. Cells were then washed 3 times with PBS, trypsinized and resuspended, stained for live/dead cells, and then FACS sorted for Cy5.5 positive cells.
The percentage of Cy5.5 positive H9C2 cells, normalized to the non-mutated peptide (SEQ ID NO: 1), for each peptide variant is summarized in Table 2 below.

H9C2 cells [2] = test: Fluorescence activated cell sorting of H9C2 cells after 30 min incubation with 10 uM peptide (median Cy5.5); format: cell-based, rat; details: for Corrected Median Cy5.5 / Raw Median Cy5.5: H9C2 cells, 30 min incubation, 10 uM peptide, single replicates; for Corrected Median Cy5.5: corrected for peptide fluorescence; for Average Correction: average of corrected median Cy5.5, H9C2 cells, FIG. 1C
Description: as §1

Q: “APAHLSSQYSRT (also: Cy5.5 conjugate, site not given here) [W3A, alanine variant of CTP, Cy5.5 conjugated]” was tested. Which “% transduction of H9C2 Cells” value (H9C2 cells [1]) did it give?
A: 75.81%

Q: What about the “Corrected Median Cy5.5” value (H9C2 cells [2]; listed as W3A_001) of the same sequence?
A: 5369.7

Q: What about the “Corrected Median Cy5.5” value (H9C2 cells [2]; listed as W3A_002) of the same sequence?
A: 5369.7

Q: What about the “Corrected Median Cy5.5” value (H9C2 cells [2]; listed as W3A_003) of the same sequence?
A: 5258.1

Q: And the “Raw Median Cy5.5” value (H9C2 cells [2]; listed as W3A_001)?
A: 4862

Q: What about the “Raw Median Cy5.5” value (H9C2 cells [2]; listed as W3A_002) of the same sequence?
A: 4862

Q: What about the “Raw Median Cy5.5” value (H9C2 cells [2]; listed as W3A_003) of the same sequence?
A: 4761

Q: And the “Average Correction” value (H9C2 cells [2])?
A: 5332.5

Q: How did the “% transduction of H9C2 Cells” value (H9C2 cells [1]) turn out when “APWHLASQYSRT (also: Cy5.5 conjugate, site not given here) [S6A, alanine variant of CTP, Cy5.5 conjugated]” was run?
A: 107.21%

Q: What about the “Corrected Median Cy5.5” value (H9C2 cells [2]; listed as S6A_001) of the same sequence?
A: 17793.0

Q: And the “Corrected Median Cy5.5” value (H9C2 cells [2]; listed as S6A_002)?
A: 18393.5

Q: And the “Corrected Median Cy5.5” value (H9C2 cells [2]; listed as S6A_003)?
A: 20420.3

Q: What about the “Raw Median Cy5.5” value (H9C2 cells [2]; listed as S6A_001) of the same sequence?
A: 22342

Q: What about the “Raw Median Cy5.5” value (H9C2 cells [2]; listed as S6A_002) of the same sequence?
A: 23096

Q: What about the “Raw Median Cy5.5” value (H9C2 cells [2]; listed as S6A_003) of the same sequence?
A: 25641

Q: And the “Average Correction” value (H9C2 cells [2])?
A: 18868.9

Q: Which “% transduction of H9C2 Cells” value (H9C2 cells [1]) does the source give for “APWALSSQYSRT (also: Cy5.5 conjugate, site not given here) [H4A, alanine variant of CTP, Cy5.5 conjugated]” here?
A: 55.05%

Q: And the “Corrected Median Cy5.5” value (H9C2 cells [2]; listed as H4A_001)?
A: 7666.1

Q: What about the “Corrected Median Cy5.5” value (H9C2 cells [2]; listed as H4A_002) of the same sequence?
A: 8011.3

Q: What about the “Corrected Median Cy5.5” value (H9C2 cells [2]; listed as H4A_003) of the same sequence?
A: 6934.0

Q: What about the “Raw Median Cy5.5” value (H9C2 cells [2]; listed as H4A_001) of the same sequence?
A: 7173

Q: What about the “Raw Median Cy5.5” value (H9C2 cells [2]; listed as H4A_002) of the same sequence?
A: 7496

Q: What about the “Raw Median Cy5.5” value (H9C2 cells [2]; listed as H4A_003) of the same sequence?
A: 6488

Q: What about the “Average Correction” value (H9C2 cells [2]) of the same sequence?
A: 7537.1

Q: Which “% transduction of H9C2 Cells” value (H9C2 cells [1]) does the source give for “APWHLSSQASRT (also: Cy5.5 conjugate, site not given here) [Y9A, alanine variant of CTP, Cy5.5 conjugated]” here?
A: 107%

Q: What about the “Corrected Median Cy5.5” value (H9C2 cells [2]; listed as Y9A_001) of the same sequence?
A: 5365.7

Q: What about the “Corrected Median Cy5.5” value (H9C2 cells [2]; listed as Y9A_002) of the same sequence?
A: 5445.9

Q: And the “Corrected Median Cy5.5” value (H9C2 cells [2]; listed as Y9A_003)?
A: 5586.0

Q: And the “Raw Median Cy5.5” value (H9C2 cells [2]; listed as Y9A_001)?
A: 5018

Q: And the “Raw Median Cy5.5” value (H9C2 cells [2]; listed as Y9A_002)?
A: 5093

Q: What about the “Raw Median Cy5.5” value (H9C2 cells [2]; listed as Y9A_003) of the same sequence?
A: 5224

Q: And the “Average Correction” value (H9C2 cells [2])?
A: 5465.9

Q: How did the “% transduction of H9C2 Cells” value (H9C2 cells [1]) turn out when “APWHLSSQYSAT (also: Cy5.5 conjugate, site not given here) [R11A, alanine variant of CTP, Cy5.5 conjugated]” was run?
A: 32.75%

Q: And the “Corrected Median Cy5.5” value (H9C2 cells [2]; listed as R11A_001)?
A: 10237.9

Q: What about the “Corrected Median Cy5.5” value (H9C2 cells [2]; listed as R11A_002) of the same sequence?
A: 10010.7

Q: And the “Corrected Median Cy5.5” value (H9C2 cells [2]; listed as R11A_003)?
A: 10518.6

Q: What about the “Raw Median Cy5.5” value (H9C2 cells [2]; listed as R11A_001) of the same sequence?
A: 9555

Q: And the “Raw Median Cy5.5” value (H9C2 cells [2]; listed as R11A_002)?
A: 9343

Q: What about the “Raw Median Cy5.5” value (H9C2 cells [2]; listed as R11A_003) of the same sequence?
A: 9817

Q: What about the “Average Correction” value (H9C2 cells [2]) of the same sequence?
A: 10255.7

Q: What does the source list for “APWHLSSQYSRA (also: Cy5.5 conjugate, site not given here) [T12A, alanine variant of CTP, Cy5.5 conjugated]”?
A: % transduction of H9C2 Cells (H9C2 cells [1]): 90.33%; Corrected Median Cy5.5 (H9C2 cells [2]; listed as T12A_001): 14307.2; Corrected Median Cy5.5 (H9C2 cells [2]; listed as T12A_002): 15682.3; Corrected Median Cy5.5 (H9C2 cells [2]; listed as T12A_003): 15498.6; Raw Median Cy5.5 (H9C2 cells [2]; listed as T12A_001): 18458; Raw Median Cy5.5 (H9C2 cells [2]; listed as T12A_002): 20232; Raw Median Cy5.5 (H9C2 cells [2]; listed as T12A_003): 19995; Average Correction (H9C2 cells [2]): 15162.7

Q: Which “% transduction of H9C2 Cells” value (H9C2 cells [1]) does the source give for “APWHLSSAYSRT (also: Cy5.5 conjugate, site not given here) [Q8A, alanine variant of CTP, Cy5.5 conjugated]” here?
A: 67.35%

Q: And the “Corrected Median Cy5.5” value (H9C2 cells [2]; listed as Q8A_001)?
A: 9725.5

Q: And the “Corrected Median Cy5.5” value (H9C2 cells [2]; listed as Q8A_002)?
A: 9339.0

Q: What about the “Corrected Median Cy5.5” value (H9C2 cells [2]; listed as Q8A_003) of the same sequence?
A: 9049.4

Q: What about the “Raw Median Cy5.5” value (H9C2 cells [2]; listed as Q8A_001) of the same sequence?
A: 10041

Q: What about the “Raw Median Cy5.5” value (H9C2 cells [2]; listed as Q8A_002) of the same sequence?
A: 9642

Q: And the “Raw Median Cy5.5” value (H9C2 cells [2]; listed as Q8A_003)?
A: 9343

Q: And the “Average Correction” value (H9C2 cells [2])?
A: 9371.3

Q: How did the “% transduction of H9C2 Cells” value (H9C2 cells [1]) turn out when “APWHASSQYSRT (also: Cy5.5 conjugate, site not given here) [L5A, alanine variant of CTP, Cy5.5 conjugated]” was run?
A: 87.81%

Q: What about the “Corrected Median Cy5.5” value (H9C2 cells [2]; listed as L5A_001) of the same sequence?
A: 5077.5

Q: What about the “Corrected Median Cy5.5” value (H9C2 cells [2]; listed as L5A_002) of the same sequence?
A: 5522.0

Q: And the “Corrected Median Cy5.5” value (H9C2 cells [2]; listed as L5A_003)?
A: 5370.0

Q: What about the “Raw Median Cy5.5” value (H9C2 cells [2]; listed as L5A_001) of the same sequence?
A: 3107

Q: What about the “Raw Median Cy5.5” value (H9C2 cells [2]; listed as L5A_002) of the same sequence?
A: 3379

Q: What about the “Raw Median Cy5.5” value (H9C2 cells [2]; listed as L5A_003) of the same sequence?
A: 3286

Q: What about the “Average Correction” value (H9C2 cells [2]) of the same sequence?
A: 5323.2

Q: What does the source list for “APWHLSAQYSRT (also: Cy5.5 conjugate, site not given here) [S7A, alanine variant of CTP, Cy5.5 conjugated]”?
A: % transduction of H9C2 Cells (H9C2 cells [1]): 54.32%; Corrected Median Cy5.5 (H9C2 cells [2]; listed as S7A_001): 21208.1; Corrected Median Cy5.5 (H9C2 cells [2]; listed as S7A_002): 23475.6; Corrected Median Cy5.5 (H9C2 cells [2]; listed as S7A_003): 23755.1; Raw Median Cy5.5 (H9C2 cells [2]; listed as S7A_001): 20184; Raw Median Cy5.5 (H9C2 cells [2]; listed as S7A_002): 22342; Raw Median Cy5.5 (H9C2 cells [2]; listed as S7A_003): 22608; Average Correction (H9C2 cells [2]): 22813.0
